Results on six molecules are retold here after patent US9732071B2, “Compounds useful as modulators of TRPM8” (Senomyx, Inc., priority 2015, dated 2017).

Values after ≈ are worked out from the molar mass of the structure shown. Read-outs that look alike come from different tables or passages of the source.

One data set has as its system panelists. Nature of the data set: Cool Line Scale Test (sensory study, cooling intensity versus 45 μM WS-3). It is filed as in vivo, human. The following applies: for lingering effect: cool line scale test; for Sensory Results: cooling compared with 45 μM WS-3: 5 μM compound, Low Sodium Buffer pH ~7.1, 0.1% ethanol, 15 point line scale. The protocol:
A typical sensory study is described below followed by Table 5 summarizing sensory results of Compounds 101-105.
All samples made with Low Sodium Buffer (LSB) pH ˜7.1 and contain 0.1% ethanol.
Compounds are rated on a 15 point line scale where 45 μM WS-3 (N-Ethyl-p-menthane-3-carboxamide) is ranked as a 5 in cool intensity. In most cases, the compounds are tested to determine at what concentration the cooling intensity is equivalent to 45 μM WS-3. In each test, the panelist is presented with a 0 μM control sample, a 45 μM WS-3 control sample and the experimental compound sample and asked to rate the cooling intensity of each sample. [0218]

The next data set addresses T1, hTRPM8 (Homo sapiens, UniProt Q7Z2W7).
T1 construct: expressed in transfected cells
Nature of the data set: hTRPM8 agonist assay in a mammalian cell line stably expressing hTRPM8. It is filed as cell-based. How it is done: A mammalian cell line derivative which stably expresses hTRPM8 was used in biological assays in association with testing the present compounds with cool-tasting or -feeling properties (Servant et al. US 2007/0259354 A1 and references cited therein). Typical compound concentrations tested were 100 μM, 30 μM, 10 μM, 3.3 μM, 1.1 μM, 0.37 μM, 0.12 μM, 0.04 μM, 0.01 μM and more dilutions for very potent compounds. The present compounds have shown strong activity as agonists of hTRPM8. […] For the sake of comparison, the EC50 of Comparative Compound 1, which was previously disclosed in U.S. 2013/0324557 A1 and has the structure

A further data set in a line: Solubility studies. It is filed as physicochemical. How it is done:
For the sake of comparison, the solubility of Comparative Compound 1, which was previously disclosed in U.S. 2013/0324557 A1, was also measured.

[1] abbreviates: aqueous buffer, pH 4.0, read-out: Solubility (pH 4.0).
Setting [2] is: pH 7.1, aqueous buffer, read-out: Solubility (pH 7.1).
[3] abbreviates: cell line stably expressing hTRPM8, read-out: EC50.

T1 sequence (Q7Z2W7 whole entry): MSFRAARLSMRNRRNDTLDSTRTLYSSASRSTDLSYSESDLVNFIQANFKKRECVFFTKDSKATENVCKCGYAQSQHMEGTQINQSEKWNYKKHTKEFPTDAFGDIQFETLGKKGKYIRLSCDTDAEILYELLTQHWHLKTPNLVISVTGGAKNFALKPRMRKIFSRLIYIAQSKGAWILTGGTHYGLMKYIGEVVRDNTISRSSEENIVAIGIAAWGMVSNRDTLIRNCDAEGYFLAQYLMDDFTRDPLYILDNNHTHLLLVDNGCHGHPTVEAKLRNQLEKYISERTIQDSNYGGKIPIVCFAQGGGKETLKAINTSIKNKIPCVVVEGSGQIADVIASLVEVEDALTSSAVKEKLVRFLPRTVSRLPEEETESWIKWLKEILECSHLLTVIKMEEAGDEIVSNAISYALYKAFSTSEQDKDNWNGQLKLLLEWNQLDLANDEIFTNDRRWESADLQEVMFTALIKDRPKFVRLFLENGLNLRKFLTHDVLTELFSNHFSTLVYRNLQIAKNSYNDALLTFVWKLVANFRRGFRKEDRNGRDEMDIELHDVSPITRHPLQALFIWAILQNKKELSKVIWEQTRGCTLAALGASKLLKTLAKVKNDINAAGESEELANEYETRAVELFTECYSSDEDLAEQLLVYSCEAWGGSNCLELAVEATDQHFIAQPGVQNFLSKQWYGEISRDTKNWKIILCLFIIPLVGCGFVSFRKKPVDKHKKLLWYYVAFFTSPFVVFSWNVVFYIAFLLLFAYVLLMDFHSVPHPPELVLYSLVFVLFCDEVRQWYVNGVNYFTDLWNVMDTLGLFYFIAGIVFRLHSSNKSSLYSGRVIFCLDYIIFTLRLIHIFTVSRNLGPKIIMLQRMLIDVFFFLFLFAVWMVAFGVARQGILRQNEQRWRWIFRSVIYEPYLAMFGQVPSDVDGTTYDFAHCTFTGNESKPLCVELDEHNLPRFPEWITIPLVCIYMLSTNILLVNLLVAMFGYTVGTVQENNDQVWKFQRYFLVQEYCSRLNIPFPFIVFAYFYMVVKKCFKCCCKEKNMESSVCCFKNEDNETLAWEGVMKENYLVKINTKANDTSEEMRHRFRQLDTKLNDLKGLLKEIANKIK

Usually EC50 stands for the midpoint of the concentration-response curve. As for `Cc1ccc(OCC(=O)N(Cc2cccs2)c2cc[nH]n2)cc1C` [Compound 105, 2-(3,4-dimethylphenoxy)-N-(1H-pyrazol-3-yl)-N-(thiophen-2-ylmethyl)acetamide], in the data set with panelists, the lingering effect entry is listed as “unexpected lingering effect”. This molecule also showed an EC50 at hTRPM8 of 0.7 nM.

One may read the solubility as the dissolved amount per volume that the medium holds. On to `Cc1cccc(OCC(=O)N(Cc2cccs2)c2cc[nH]n2)c1` [Compound 101, N-(1H-pyrazol-3-yl)-N-(thiophen-2-ylmethyl)-2-(m-tolyloxy)acetamide], for which the solubility in the data set “Solubility studies” (setting [1]) came to 517 µM (≈ 169 µg/mL); in “Solubility studies” (setting [2]), 152 µM (≈ 49.8 µg/mL). The “Solubility (pH 4.0)” value in “Solubility studies” (pH 4.0) is given as “unexpectedly superior solubility”. Also, the concentration for a half-maximal effect (EC50) on hTRPM8 (setting [3]) came to 6.1 nM.

In the case of `O=C(COc1ccc(F)cc1)N(Cc1cccs1)c1cc[nH]n1` [Compound 102, 2-(4-flourophenoxy)-N-(1H-pyrazol-5-yl)-N-(thiophen-2-ylmethyl)acetamide], in the data set “Solubility studies”, the “Solubility (pH 7.1)” value was “unexpectedly superior solubility”. Also, the solubility in “Solubility studies” (setting [2]) is 503 µM (≈ 167 µg/mL). Further, the EC50 at hTRPM8 (setting [3]) was determined as 10.7 nM.

With `Cc1ccc(OCC(=O)N(Cc2cccs2)c2ccn[nH]2)cc1` [Comparative Compound 1, reference compound], the solubility is 106 µM (≈ 34.7 µg/mL) in “Solubility studies” (setting [1]) and 171 µM (≈ 56 µg/mL) in “Solubility studies” (setting [2]). The EC50 on hTRPM8 (setting [3]) came out at 0.3 nM.

On to `COc1ccc(OCC(=O)N(Cc2cccs2)c2cc[nH]n2)cc1` [Compound 103, 2-(4-methoxyphenoxy)-N-(1H-pyrazol-3-yl)-N-(thiophen-2-ylmethyl)acetamide], for which, in the data set with panelists, the “Sensory Results: cooling compared with 45 μM WS-3” value is “equivalent to the cooling 45” and the lingering effect result is reported as “unexpected lingering effect”. In addition, in “Solubility studies”, the “Solubility (pH 7.1)” value is given as “unexpectedly superior solubility”. Besides, the solubility in the data set “Solubility studies” (setting [2]) is 403 µM (≈ 138 µg/mL). Moreover, at hTRPM8 (setting [3]), the EC50 amounted to 4.9 nM.

Turning to `CCc1ccc(OCC(=O)N(Cc2cccs2)c2cc[nH]n2)cc1` [Compound 104, 2-(4-ethylphenoxy)-N-(1H-pyrazol-3-yl)-N-(thiophen-2-ylmethyl)acetamide], in the data set on panelists, the “Sensory Results: cooling compared with 45 μM WS-3” value is “significantly more cooling” and the lingering effect entry is on record as “unexpected lingering effect”. Moreover, the EC50 at hTRPM8 (setting [3]) was under 1 nM.
